Assay results as given in PubChem BioAssay (NCI).
Where “and” joins values, the source holds several entries; their conditions need not be identical. Equal entries are not always repeated.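 Five concentrations, 48 hours, 96-well plates. At the GI50, growth is halved. Definition used: TGI = concentration required for complete inhibition of growth.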

Experiments:
Assay in all cases: inhibition of tumour cell growth, NCI panel, 48 h
[1] = test system: MALME-3M melanoma
[2] = test system: HT29 colon
[3] = test system: COLO 205 colon
[4] = test system: M14 melanoma
[5] = test system: CCRF-CEM leukemia
[6] = test system: RXF 393 renal
[7] = test system: HCC-2998 colon
[8] = test system: NCI-H226 lung
[9] = test system: 786-0 renal
[10] = test system: ACHN renal

Row | SMILES | GI50 [1] [µM] | TGI [1] [µM] | GI50 [2] [µM] | TGI [2] [µM] | GI50 [3] [µM] | TGI [3] [µM] | GI50 [4] [µM] | TGI [4] [µM] | GI50 [5] [µM] | TGI [5] [µM] | GI50 [6] [µM] | TGI [6] [µM] | GI50 [7] [µM] | TGI [7] [µM] | GI50 [8] | TGI [8] [µM] | GI50 [9] [µM] | TGI [9] [µM] | GI50 [10] [µM] | TGI [10] [µM]
1 | Cc1c(C#N)cccc1-c1cc(-c2cn(Cc3cccc(C(C)(C)O)n3)nn2)nc(N)n1 | 31.3 | > 100 | 28.2 | > 100 | 25.9 | > 100 | 21.7 | > 100 | 16.3 | > 100 | 22.9 | > 100 | 90.3 | > 100 | 22.7 µM | 91.9 | 32 | > 100 | 28.3 | > 100
2 | Cc1ccc2c(c1)nc(C(=O)c1ccco1)c(C(F)(F)F)[n+]2[O-] | > 100 | > 100 | > 100 | > 100 | > 100 | > 100 | > 100 | > 100 | > 100 | > 100 | > 100 | > 100 | > 100 | > 100 | > 100 µM | > 100 | > 100 | > 100 | > 100 | > 100
3 | CC(C)(C)N1CCC1C(N)=O (centres undefined) | > 100 | > 100 | > 100 | > 100 | > 100 | > 100 | > 100 | > 100 | > 100 | > 100 | > 100 | > 100 | > 100 | > 100 | > 100 µM | > 100 | > 100 | > 100 | > 100 | > 100
4 | O=C(/C=C/c1cccnc1)NCCCCC1CCN(C(=O)c2ccccc2)CC1 | > 86.5 | > 100 | < 0.01 | > 100 | 25.4 | > 100 | < 0.01 | > 100 | < 0.01 | > 100 | > 100 | > 100 |  | > 100 | > 100 µM and 62.3 µM | > 100 | > 100 | > 100 | > 100 | > 100
5 | CCN(Cc1cccc(OC)c1)c1ccc(CO)c(Cl)c1 | 17.5 | 40.9 | 2.13 | 17.3 | 1.02 | 4.35 | 16.2 | 41 | 24.8 | > 82.6 | 11.9 | 28.8 | 12.5 | 33.8 | 0.0957 µM | 0.231 | 12.4 | 38.5 | 26.5 | 96.8
6 | Cc1cccc(C(C)(C)C)c1NC(=O)C(=O)C(C(=O)/C=C\c1ccccc1)C1OC(=O)c2ccccc21 (centres undefined) |  | > 100 |  | > 100 |  | > 100 |  | > 100 |  | > 100 |  | > 100 |  | > 100 |  | > 100 |  | > 100 |  | > 100
7 | CCCCCCCCCC(=O)CC(=O)c1ccc(O)cc1O |  | > 100 |  | > 100 |  | > 100 |  | 54.7 |  | > 100 |  | 72.1 |  | 46.3 |  | 84.9 |  | > 100 |  | 89.3
